Laboratory results: patent US20140066365A1, “USE OF CALIXARENES ASSOCIATED WITH AN ANTIBIOTIC IN THE TREATMENT OF BACTERIAL INFECTIONS” (priority 2011, published 2014)
Converted amounts (≈) assume the structure as drawn. Read-outs that look alike come from different tables or passages of the source.

Assays:
[1] = test system: Escherichia coli strain ATCC 25922 (wild type); assay: MIC of the compounds used alone, microdilution in a liquid medium (CLSI); format: cell-based; details: Escherichia coli
Description: (§1) The MICs of the antibiotics were previously defined for each strain, by the method of microdilution in a liquid medium (CLSI (Clinical and Laboratory Standards Institute), 2003).

[2] = test system: Pseudomonas aeruginosa strain ATCC 27853 (wild type); assay: as above; format: cell-based; details: Pseudomonas aeruginosa
Description: as §1

[3] = test system: Staphylococcus aureus strain ATCC 29213 (wild type); assay: as above; format: cell-based; details: Staphylococcus aureus
Description: as §1

[4] = as above; format: cell-based, Staphylococcus aureus; details: Staphylococcus aureus, MRSA
Description: as §1

[5] = test system: MRSA strain having a resistance to the aminoglycosides and fluoroquinolones (SaR3); assay: as above; format: cell-based, Staphylococcus aureus; details: Staphylococcus aureus, MRSA
Description: as §1

[6] = test system: MRSA strain without associated resistance (SaR1); assay: as above; format: cell-based, Staphylococcus aureus; details: Staphylococcus aureus, MRSA
Description: as §1

[7] = test system: SaR1: Meticillin-Resistant Staphylococcus aureus without Associated Resistance; assay: Antibiogram, MIC by the VITEK 2 system; format: cell-based; details: for CA-SFM Interpretation: Cc CA-SFM 2011; for CLSI Interpretation: Cc CLSI 2011; for EUCAST Interpretation: Cc EUCAST 2011; for Results: from MIC
Procedure: (§2) The bacterial and antibiogramidentification is carried out by the VITEK 2 system (bioMérieux)

[8] = test system: SaR3: Meticillin-Resistant Staphylococcus aureus; assay: Antibiogram by the disk diffusion technique; format: cell-based; details: for CA-SFM Interpretation: Cd CA-SFM 2011; for CLSI Interpretation: Cd CLSI 2011; for EUCAST Interpretation: Cd EUCAST 2011; for Diameter: Table E1; for Results: Table E1, against Dmin Dmax; for diameter in mm: Table E2
Procedure: (§3) The bacterial and antibiogramidentification is carried out by the VITEK 2 system (bioMérieux) and by the disk diffusion technique

[9] = test system: SaR1: Meticillin-Resistant Staphylococcus aureus without Associated Resistance; assay: Antibiogram, inhibition diameter (Table D1); format: cell-based; details: for Results: from diameter, against Dmin Dmax
Procedure: as §2

[10] = test system: ESBL-producing strain of Escherichia coli, having an associated resistance to the aminoglycosides (EcR3); assay: MIC of the compounds used alone, microdilution in a liquid medium (CLSI); format: cell-based; details: Escherichia coli, antibiotic alone (second value of cell), read-out: Initial MICs
Description: as §1

[11] = test system: cephalosporinase-hyperproducing strain of Escherichia coli (EcR2); assay: as above; format: cell-based; details: Escherichia coli, antibiotic alone (second value of cell), read-out: Initial MICs
Description: as §1

[12] = test system: penicillinase-producing strain of Escherichia coli without associated resistance (EcR1); assay: as above; format: cell-based; details: Escherichia coli, antibiotic alone (second value of cell), read-out: Initial MICs
Description: as §1

[13] = test system: EcR1: Penicillinase-Producing Escherichia coli without Associated Resistance; assay: Antibiogram, MIC by the VITEK 2 system; format: cell-based; details: for MIC: Escherichia coli
Procedure: (§4) 5.1 EcR1: Penicillinase-Producing Escherichia coli without Associated Resistance The bacterial and antibiogramidentification is carried out by the VITEK 2 system (bioMérieux) and by the disk diffusion technique.

[14] = test system: EcR1: Penicillinase-Producing Escherichia coli without Associated Resistance; assay: Antibiogram by the disk diffusion technique; format: cell-based; details: Table A1
Procedure: as §4

[15] = test system: EcR2: Cephalosporinase-Hyperproducing Strain of Escherichia coli; assay: Antibiogram by the disk diffusion technique; format: cell-based
Procedure: The bacterial and antibiogramidentification is carried out by the VITEK 1 system (bioMérieux) and by the disk diffusion technique

[16] = test system: EcR3: ESBL-Producing Escherichia coli; assay: Antibiogram by the disk diffusion technique; format: cell-based
Procedure: The bacterial and antibiogramidentification is carried out by the VITEK 2 system (bioMerieux) and by the disk diffusion technique

[17] = test system: SaR4: Meticillin-Resistant Staphylococcus aureus; assay: Antibiogram, MIC by the VITEK 2 system; format: cell-based; details: for CA-SFM Interpretation / CLSI Interpretation / EUCAST Interpretation: from MIC; for CA-SFM Interpretation: Cc CA-SFM 2011; for CLSI Interpretation: Cc CLSI 2011; for EUCAST Interpretation: Cc EUCAST 2011; for MIC: Staphylococcus aureus
Procedure: as §3

[18] = ATCC29213, antibiotic alone (second value of cell), S. aureus ATCC 29213, read-out: Initial MICs
[19] = antibiotic alone (second value of cell), SaR4, read-out: MIC
[20] = antibiotic alone (second value of cell), SaR3, read-out: MIC
[21] = antibiotic alone (second value of cell), SaR1, read-out: MIC
[22] = Staphylococcus aureus, SaR1, Table D1, read-out: MIC

N=C(N)c1ccc(OCCCCCCOc2ccc(C(=N)N)cc2)cc1 [Hexamidine]
MIC ([1]; ATCC25922, read-out: Initial MICs (mg/L), antiseptic (ATS)): 8 mg/L
MIC ([2]; ATCC27853, read-out: Initial MICs (mg/L), antiseptic (ATS)): 32 mg/L
MIC ([3]; ATCC29213, read-out: Initial MICs (mg/L), antiseptic (ATS)): < 1 mg/L

CC(=O)NC[C@H]1CN(c2ccc(N3CCOCC3)c(F)c2)C(=O)O1 [Linezolid]
MIC [3, 18]: 2 mg/L
MIC [4, 19]: 2 mg/L
MIC [5, 20]: 2 mg/L
MIC [6, 21]: 2 mg/L
CA-SFM Interpretation ([7]; SaR1): Susceptible
CLSI Interpretation ([7]; SaR1): Susceptible
EUCAST Interpretation ([7]; SaR1): Susceptible
Results ([7]; SaR1, Table D1): Susceptible
MIC ([7]; SaR1, Table D2): 2 mg/L (≈ 5.93 µM)
MIC [7, 22]: 2 mg/L (≈ 5.93 µM)
CA-SFM Interpretation [8]: Susceptible
CLSI Interpretation [8]: Susceptible
EUCAST Interpretation [8]: Susceptible
Diameter [8]: 26 mm
Results [8]: Susceptible
diameter in mm [8]: 26 mm
Diameter [9]: 29 mm
Results [9]: Susceptible

CO/N=C(\C(=O)N[C@@H]1C(=O)N2C(C(=O)O)=C(COC(C)=O)CS[C@H]12)c1csc(N)n1 [Cefotaxime]
MIC [10]: 128 mg/L
MIC ([1]; ATCC25922, antibiotic alone (second value of cell), E. coli ATCC 25922, read-out: Initial MICs): 0.06 mg/L
MIC [11]: 4 mg/L
MIC [12]: 0.06 mg/L
CA-SFM Interpretation ([13]; EcR1, MIC against Cc CA-SFM 2011): Susceptible
CLSI Interpretation ([13]; EcR1, MIC against Cc CLSI 2011): Susceptible
EUCAST Interpretation ([13]; EcR1, MIC against Cc EUCAST 2011): Susceptible
Results ([13]; EcR1, interpretation of the MIC, Table A1): Susceptible
MIC ([13]; EcR1, Table A2, read-out: MIC mg/L (diameter in mm)): ≤ 1 mg/L
MIC ([13]; EcR1, VITEK 2, Table A1, read-out: MIC): ≤ 1 mg/L
Diameter ([14]; EcR1, disk diffusion): 30 mm
Results ([14]; EcR1, interpretation of the diameter against Dmin Dmax): Susceptible
Diameter ([15]; EcR2, disk diffusion, Table B1): 24
Results ([15]; EcR2, rows that print a diameter, Table B1): Intermediate
Diameter ([15]; EcR2, Table B2, diameters): 24 mm
CA-SFM Interpretation ([15]; EcR2, from diameter, CA-SFM 2011): Intermediate
CLSI Interpretation ([15]; EcR2, from diameter, CLSI 2011): Intermediate
EUCAST Interpretation ([15]; EcR2, from diameter, EUCAST 2011): Resistant
CA-SFM Interpretation ([16]; Cd CA-SFM 2011): Resistant
CLSI Interpretation ([16]; Cd CLSI 2011): Resistant
EUCAST Interpretation ([16]; Cd EUCAST 2011): Intermediate
Diameter ([16]; Table C1): 19 mm
Results ([16]; Table C1, against Dmin Dmax): Intermediate
diameter in mm ([16]; Table C2): 19 mm

[H]/N=C(\N/C(=N/[H])NCCCCCCNC(=N)NC(=N)Nc1ccc(Cl)cc1)Nc1ccc(Cl)cc1 [Chlorhexidine]
MIC ([1]; ATCC25922, antiseptic alone, E. coli ATCC 25922, read-out: Initial MICs (mg/L), antiseptic (ATS)): < 1 mg/L
MIC ([2]; ATCC27853, antiseptic alone, P. aeruginosa ATCC 27853, read-out: Initial MICs (mg/L), antiseptic (ATS)): 4 mg/L
MIC ([3]; ATCC29213, antiseptic alone, S. aureus ATCC 29213, read-out: Initial MICs (mg/L), antiseptic (ATS)): < 1 mg/L

C[C@H]1COc2c(N3CCN(C)CC3)c(F)cc3c(=O)c(C(=O)O)cn1c23 [Levofloxacin]
MIC [3, 18]: 0.125 mg/L
MIC [4, 19]: > 32 mg/L
MIC [5, 20]: 8 mg/L
MIC [6, 21]: 0.25 mg/L

CN[C@H](CC(C)C)C(=O)N[C@H]1C(=O)N[C@@H](CC(N)=O)C(=O)N[C@H]2C(=O)N[C@H]3C(=O)N[C@H](C(=O)N[C@H](C(=O)O)c4cc(O)cc(O)c4-c4cc3ccc4O)[C@H](O)c3ccc(c(Cl)c3)Oc3cc2cc(c3O[C@@H]2O[C@H](CO)[C@@H](O)[C@H](O)[C@H]2O[C@H]2C[C@](C)(N)[C@H](O)[C@H](C)O2)Oc2ccc(cc2Cl)[C@H]1O [Vancomycin]
MIC ([3]; ATCC29213, read-out: Initial MICs (mg/L)): 0.5 mg/L
MIC [4]: 0.25 mg/L
MIC [5]: 0.25 mg/L
MIC [6]: 0.25 mg/L
CA-SFM Interpretation ([7]; SaR1): Susceptible
CLSI Interpretation ([7]; SaR1): Susceptible
EUCAST Interpretation ([7]; SaR1): Susceptible
Results ([7]; SaR1, Table D1): Susceptible
MIC mg/L ([7]; SaR1, Table D2): ≦1 mg/L
MIC ([7]; Staphylococcus aureus, read-out: MIC mg/L): ≤ 1 mg/L
CA-SFM Interpretation [8]: Susceptible
Results [8]: Susceptible
diameter in mm [8]: 28 mm
Results ([17]; SaR4, Table F1, MIC): Susceptible
CA-SFM Interpretation ([17]; SaR4): Susceptible
CLSI Interpretation ([17]; SaR4): Susceptible
EUCAST Interpretation ([17]; SaR4): Susceptible
MIC [17]: 1 mg/L (≈ 0.69 µM)
MIC ([17]; read-out: MIC mg/L): 1 mg/L (≈ 0.69 µM)
Results [9]: Susceptible

CC[C@H]1OC(=O)[C@H](C)[C@@H](O[C@H]2C[C@@](C)(OC)[C@@H](O)[C@H](C)O2)[C@H](C)[C@@H](O[C@@H]2O[C@H](C)C[C@H](N(C)C)[C@H]2O)[C@](C)(O)C[C@@H](C)C(=O)[C@H](C)[C@@H](O)[C@]1(C)O [Erythromycin]
MIC [3, 18]: 0.5 mg/L
MIC [4, 19]: > 32 mg/L
MIC [5, 20]: 0.5 mg/L
MIC [6, 21]: 0.5 mg/L
CA-SFM Interpretation ([7]; SaR1): Susceptible
CLSI Interpretation ([7]; SaR1): Susceptible
EUCAST Interpretation ([7]; SaR1): Susceptible
Results ([7]; SaR1, Table D1): Susceptible
MIC mg/L ([7]; SaR1, Table D2): ≦0.25 mg/L
MIC [7, 22]: ≤ 0.25 mg/L
CA-SFM Interpretation [8]: Susceptible
CLSI Interpretation [8]: Susceptible
EUCAST Interpretation [8]: Susceptible
Diameter [8]: 25 mm
Results [8]: Susceptible
diameter in mm [8]: 25 mm
Results ([17]; SaR4, Table F1, MIC): Resistant
CA-SFM Interpretation ([17]; SaR4): Resistant
CLSI Interpretation ([17]; SaR4): Resistant
EUCAST Interpretation ([17]; SaR4): Resistant
MIC ([17]; SaR4, Table F1, read-out: MIC): ≥ 8 mg/L
MIC ([17]; SaR4, Table F2, MIC, read-out: MIC): ≥ 8 mg/L
Diameter [9]: 25 mm
Results [9]: Susceptible
